In patent US11499978B2, “Method for measuring quality of therapeutic cell through real-time glutathione measurement” (CELL2IN, INC., priority 2017, dated 2022):

Experiments:
hES-MSCs = test: CFU-F assay of FreSH-Tracer-sorted hES-MSCs; format: cell-based, human
Procedure: Main factors for determining the therapeutic efficacy of hBM-MSCs, namely a colony forming unit-fibroblast (CFU-F) and a graft survival rate, were evaluated in cell culture models.
In order to test whether direct control of a GSH level in stem cells leads to change in cell functions, hES-MSCs sorted by FreSH-Tracer were treated with buthionine sulfoximine (BSO; glutathione synthesis inhibitor) and glutathione ethyl ester (GSH-EE). When GSH was decreased in cells by treating GSH^High cells with BSO (80 μM, 24 h), it was confirmed that CFU-F increased, and on the other hand, when GSH was increased by treating GSH^Low cells with GSH-EE (1 mM, 2 h), it was confirmed that CFU-F decreased (FIG. 13A). In addition, it was confirmed that, when hES-MSCs which were not sorted by FreSH-Tracer were treated with BSO or GSH-EE, PDGF-AA-induced cell migration capacity was decreased or increased, respectively (FIG. 13B).

hUC-MSCs [1] = test: SDF1α- and PDGF-AA-induced migration capacity of hUC-MSCs; format: cell-based, human; conditions: increasing GGC treatment concentration (0.1, 0.25 mM), n=3
Procedure: The inventors observed an effect of the material on stem cells by treating each stem cells with a material for enhancing a glutathione evaluation parameter. When hUC-MSCs were subcultured in a L-AA2G-containing medium, CFU-F, migration capacity, and an anti-inflammatory effect were observed. A CFU-F assay (n=3) was performed by treating hUC-MSCs with 125 or 250 μg/mL of AA2G for three days. As shown in FIGS. 16A and 16B, it was confirmed that, when AA2G was treated, CFU-F increased. In addition, as hUC-MSCs were treated with 125 or 250 μg/mL of AA2G for three days, PDGF-AA-induced migration capacity (n=3) was analyzed. As shown in FIGS. 17A and 17B, it was confirmed that the migration capacity was increased by AA2G treatment. In addition, the reduction in T cell proliferation, the reduction in T cell differentiation, and the promotion of Treg cell differentiation were observed by treating hUC-MSCs with 125 or 250 μg/mL of AA2G for three days. […] Meanwhile, hUC-MSCs were cultured with a glutathione precursor such as γ-glutamyl cysteine (GGC, 0.1, 0.25, and 0.5 mM). […] In addition, SDF1α and PDGF-AA-induced migration capacities (n=3) were analyzed for hUC-MSCs without treatment with GGC, and SDF1α and PDGF-AA-induced migration abilities (n=3) were analyzed by treating hUC-MSCs with the increasing concentrations of GGC. […]

hUC-MSCs [2] = test: CFU-F assay of hUC-MSCs; format: cell-based, human; conditions: n=3
Procedure: The inventors observed an effect of the material on stem cells by treating each stem cells with a material for enhancing a glutathione evaluation parameter. When hUC-MSCs were subcultured in a L-AA2G-containing medium, CFU-F, migration capacity, and an anti-inflammatory effect were observed. A CFU-F assay (n=3) was performed by treating hUC-MSCs with 125 or 250 μg/mL of AA2G for three days. As shown in FIGS. 16A and 16B, it was confirmed that, when AA2G was treated, CFU-F increased. In addition, as hUC-MSCs were treated with 125 or 250 μg/mL of AA2G for three days, PDGF-AA-induced migration capacity (n=3) was analyzed. As shown in FIGS. 17A and 17B, it was confirmed that the migration capacity was increased by AA2G treatment. In addition, the reduction in T cell proliferation, the reduction in T cell differentiation, and the promotion of Treg cell differentiation were observed by treating hUC-MSCs with 125 or 250 μg/mL of AA2G for three days. […] Meanwhile, hUC-MSCs were cultured with a glutathione precursor such as γ-glutamyl cysteine (GGC, 0.1, 0.25, and 0.5 mM). A CFU-F assay (n=3) was performed by treating hUC-MSCs with each concentration of GGC for 2 hours. […] In addition, SDF1α and PDGF-AA-induced migration capacities (n=3) were analyzed for hUC-MSCs without treatment with GGC, and SDF1α and PDGF-AA-induced migration abilities (n=3) were analyzed by treating hUC-MSCs with the increasing concentrations of GGC. STI571 was used as a PDGFR kinase inhibitor. As shown in FIGS. 20A to 20C, it was confirmed that, according to an increase in GGC treatment concentration, SDF1α- and PDGF-AA-induced migration capacities were enhanced. A CFU-F assay (n=3) was performed by treating hUC-MSCs with 0.2, 1, 2, and 4 μM ferrostatin-1 and 0.1, 0.5, 1, and 2 μM liproxstatin-1 for 24 hours.

T cells = test: Anti-inflammatory effect of treated hUC-MSCs on T cells; format: cell-based; conditions: for anti-inflammatory effect of the hUC-MSCs: ferrostatin-1 1 μM 24 h, GGC 0.2 mM 2 h, FIGS. 27, 28A to 28C; for T cell differentiation capacity / T cell proliferation ability / Treg cell differentiation: hUC-MSCs treated with 1 μM ferrostatin-1 24 h, 0.2 mM GGC 2 h, 2 mM GSH-EE 2 h
Procedure: The inventors observed an effect of the material on stem cells by treating each stem cells with a material for enhancing a glutathione evaluation parameter. When hUC-MSCs were subcultured in a L-AA2G-containing medium, CFU-F, migration capacity, and an anti-inflammatory effect were observed. A CFU-F assay (n=3) was performed by treating hUC-MSCs with 125 or 250 μg/mL of AA2G for three days. As shown in FIGS. 16A and 16B, it was confirmed that, when AA2G was treated, CFU-F increased. In addition, as hUC-MSCs were treated with 125 or 250 μg/mL of AA2G for three days, PDGF-AA-induced migration capacity (n=3) was analyzed. As shown in FIGS. 17A and 17B, it was confirmed that the migration capacity was increased by AA2G treatment. In addition, the reduction in T cell proliferation, the reduction in T cell differentiation, and the promotion of Treg cell differentiation were observed by treating hUC-MSCs with 125 or 250 μg/mL of AA2G for three days.
In addition, hUC-MSCs were cultured with ferrostatin-1 (0.2, 1, 2 and 4 μM) and liproxstatin-1 (0.1, 0.5, 1 and 2 μM), which control a glutathione level in cells by inhibiting lipid oxidation. […] Meanwhile, the hUC-MSCs were treated with 1 μM ferrostatin-1 for 24 hours, 0.2 mM GGC for 2 hours, and 2 mM GSH-EE for 2 hours. As a result, the reduction in T cell proliferation ability and the reduction in T cell differentiation capacity were observed, and promotion of Treg cell differentiation was observed.

hUC-MSCs [3] = test: Oxidative stress resistance capacity (ORC) analysis in hUC-MSCs with RSL3; format: cell-based, human; conditions: hUC-MSCs; liproxstatin-1 0, 2.5, 5 or 10 μM; RSL3 0, 0.5 or 1 μM; the higher the concentration
Procedure: GRC refers to a value obtained by real-time monitoring of FR after living cells are treated with an oxidizing agent, as calculated by dividing a value obtained by subtracting AUC of a group treated with 0.1-100 mM N-ethylmaleimide (NEM) from FR AUC of an oxidizing agent (diamide, H2O2, etc.)-treated group by a value obtained by subtracting the AUC of NEM-treated group from AUC of the untreated control, and multiplying the resulting value by 100. The FR of the NEM-treated group is a value for increasing the sensitivity of a GRC value by treating it as the blank value of the FR of the cells of interest. […] To remove the MitoFreSH-Tracer from the medium before measurement, the medium was exchanged with fresh 10 mM HEPES-containing HBSS(Hanks' Balanced Salt Solution), and a fluorescence image was obtained using a confocal imaging system, Operetta. By comparing GSH levels quantified from control cells not treated with RSL3 or control cells before treated with RSL3, the distribution of GSH expression-changed cells was calculated. Based on the point where the distribution histogram is divided into two peaks, the cells were divided into GSH^High cells (right peak) and GSH^Low cells (left peak), and then a ratio of corresponding cells was expressed as a percentage (%). […]

| SMILES | CFU-F (hES-MSCs; GSH^High hES-MSCs treated with BSO 80 μM, 24 h) | SDF1α- and PDGF-AA-induced migration capacities (hUC-MSCs [1]) | CFU-F (hUC-MSCs [2]; GGC 0.1, 0.25 and 0.5 mM for 2 hours) | anti-inflammatory effect of the hUC-MSCs (T cells) | T cell differentiation capacity (T cells) | T cell proliferation ability (T cells) | Treg cell differentiation (T cells) | CFU-F (hES-MSCs; GSH^Low hES-MSCs treated with GSH-EE 1 mM, 2 h) | ORC: ratio of the GSH^High cells (hUC-MSCs [3]) | CFU-F (hUC-MSCs [2]; ferrostatin-1 0.2, 1, 2 and 4 μM, liproxstatin-1 0.1, 0.5, 1 and 2 μM, 24 hours) |
| --- | --- | --- | --- | --- | --- | --- | --- | --- | --- | --- |
| CCCCS(=N)(=O)CCC(N)C(=O)O (centres unmarked) [BSO, buthionine sulfoximine] | increased |  |  |  |  |  |  |  |  |  |
| N[C@@H](CCC(=O)N[C@@H](CS)C(=O)O)C(=O)O [GGC, γ-glutamyl cysteine] |  | enhanced | increased | no change | reduction | reduction | promotion |  |  |  |
| CCOC(=O)CNC(=O)[C@H](CS)NC(=O)CC[C@H](N)C(=O)O [GSH-EE, glutathione ethyl ester] |  |  |  |  | reduction | reduction | promotion | decreased |  |  |
| Clc1cccc(CN=C2Nc3ccccc3NC23CCNCC3)c1 [liproxstatin-1] |  |  |  | did not alter |  |  |  |  | increased | improved |
